Assay results from US20160206620A1, “PURIN DERIVATIVES FOR USE IN THE TREATMENT OF FAB-RELATED DISEASES” (Boehringer Ingelheim International GmbH, priority 2008, published 2016).

How the values were obtained:
[1] = tested on: ob/ob mice; assay: Wound healing of excisional wounds in ob/ob mice (histology, Ly6G staining); type: in vivo, mouse; conditions: 3 mg/kg daily
Description: The ob/ob mice have been used and are accepted as experimental model for diabetes-impaired wound healing. These animals suffer from severe diabetes and obesity syndromes which show similar characteristics like in the human situation (e.g. obesity, insulin resistance). Insulin and diet reduce hyperglycemia in obese mice just they as they do in obese and diabetic subjects, but neither improves healing in these animals as has been shown recently.
(§1) Female C57BI/6J-ob/ob mice (Charles River, Sulzfeld) in the age of 8-9 weeks were used. 6 excisional wounds (including the panniculus carnosus) were placed on the back of each animal under ketamin anaesthesia. The animals were treated daily with 3 mg/kg of BI 1356 or methycellulose (1-2%). On day 10 an oral glucose tolerance test (2 g/kg) was performed (0, 30, 60, 90, 120 and 180 min) at the tail tip. Animals were killed under isofluran anaesthesia by cervical dislocation and wounds were excised for histological analysis. Serum was further taken for the detection of DPP-4 activity. Histology was performed in 6-8 μm paraffin embedded and paraformaldehyd fixed cuttings with eosin-hematoxylin staining. Moreover, polymorphonuclear neutrophils (PMN) were identified by immunohistological staining of Ly6G as a robust readout for wound inflammation. (Ref. S. Frank, Methods in Molecular Medicine 2003, Kämpfer, Diabetes 2006)

[2] = clinical; conditions: human, urine
[3] = Pharmacokinetics of BI 1356 in patients with type 2 diabetes, multiple oral doses once daily for 12 days; conditions: for RA, AUC (accumulation ratio), gMean (gCV) / RA, Cmax (accumulation ratio), gMean (gCV) / feτ, ss, gMean (gCV): steady state (Day 12); for fe0-24, gMean (gCV): type 2 diabetes patients
[4] = 2 h postprandial blood glucose excursions in patients with type 2 diabetes; type: in vivo, human; conditions: already on Day 1, doses ≧2.5 mg
Description: […]. […] […]. […] […].

[5] = tested on: ob/ob mice; assay: Oral glucose tolerance test in ob/ob mice; type: in vivo, mouse; conditions: 3 mg/kg daily, OGTT 2 g/kg on day 10
Protocol: as §1

[6] = Safety and tolerability in people with type 2 diabetes

CC#CCn1c(N2CCC[C@@H](N)C2)nc2c1c(=O)n(Cc1nc(C)c3ccccc3n1)c(=O)n2C [BI 1356, 1-[(4-methyl-quinazolin-2-yl)methyl]-3-methyl-7-(2-butyn-1-yl)-8-(3-(R)-amino-piperidin-1-yl)-xanthine]
PMN accumulation in wounds (Ly6G immunohistology) [1]: overall reduction of PMN accumulation
wound morphology and wound re-epithelialization (histology) [1]: profound improvement of wound morphology and wound re-epithelialization
distance between wound margin epithelia (wound size) ([1]; treated for 12 day, control 2.02±1.07 mm): 0.74±0.90 mm
CL renal ([2]; oral, 5 mg): ~70 mL/min
CL renal ([2]; po): 14 to 70 mL/min
RA, AUC (accumulation ratio), gMean (gCV) ([3]; 1 mg oral once daily): 2.03 (30.7)
RA, Cmax (accumulation ratio), gMean (gCV) ([3]; 1 mg oral once daily): 1.44 (25.6)
feτ, ss, gMean (gCV) ([3]; 1 mg oral once daily): 3.34 (38.3) %
RA, AUC (accumulation ratio), gMean (gCV) ([3]; 2.5 mg oral once daily): 1.37 (8.2)
RA, Cmax (accumulation ratio), gMean (gCV) ([3]; 2.5 mg oral once daily): 1.25 (10.6)
feτ, ss, gMean (gCV) ([3]; 2.5 mg oral once daily): 3.06 (45.1) %
fe0-24, gMean (gCV) ([3]; 2.5 mg oral once daily): 0.139 (51.2) %
RA, AUC (accumulation ratio), gMean (gCV) ([3]; 5 mg oral once daily): 1.33 (15.0)
RA, Cmax (accumulation ratio), gMean (gCV) ([3]; 5 mg oral once daily): 1.33 (30.0)
feτ, ss, gMean (gCV) ([3]; 5 mg oral once daily): 6.27 (42.2) %
fe0-24, gMean (gCV) ([3]; 5 mg oral once daily): 0.453 (125)^ %
RA, AUC (accumulation ratio), gMean (gCV) ([3]; 10 mg oral once daily): 1.18 (23.4)
RA, Cmax (accumulation ratio), gMean (gCV) ([3]; 10 mg oral once daily): 1.40 (47.7)
feτ, ss, gMean (gCV) ([3]; 10 mg oral once daily): 3.22 (34.2) %
fe0-24, gMean (gCV) ([3]; 10 mg oral once daily): 0.919 (115)^ %
mean accumulation ratio RA,AUC ([3]; doses above 1 mg, once daily oral): ≤ 1.4
excreted via the kidney ([3]; therapeutic oral dose levels): < 7 % of the administered oral dose
route of excretion ([3]; therapeutic oral dose levels): primarily excreted unchanged via the bile
decrease in 2 h postprandial blood glucose excursions [4]: ≥ 80%
reduction of glucose excursion following oral glucose tolerance assay (absolute AUC) [5]: 25%
safety and tolerability [6]: placebo-like safety and tolerability
